Patent US5338849A, “Azaindoles, preparation processes and medicinal products containing them” (Lipha, Lyonnaise Industrielle Pharmaceutique, priority 1992, dated 1994)

Assays:
[1] = system: intestinal absorption of cholesterol; test: Test C: measurement of the inhibition of intestinal absorption of cholesterol in rats; format: in vivo, Wistar male rats; details: Rattus norvegicus; oral, fasted rats, Triton WR-1339 i.v., [^3 H]cholesterol orally; read-out: 50% effective dose (ED50), quantity of compound which inhibits intestinal absorption of cholesterol by 50%
Method: Test C: measurement of the inhibition of intestinal absorption of cholesterol in rats; Wistar male rats weighing 230-250 g, fasted for 24 hours, are treated simultaneously with the test product administered orally and with Triton WR-1339 administered i.v.; one hour later, they are treated again orally with [^3 H]cholesterol; three hours later, under ether anaesthesia, 1 ml of blood is withdrawn from their retro-orbital sinus: the blood radioactivity, evaluated on 0.1 ml of serum, represents the measure of the absorption of the [^3 H]cholesterol administered. The results are expressed in the form of a 50% effective dose (ED50) in mg per kg of animal body weight, which represents the quantity of compound which inhibits intestinal absorption of cholesterol by 50%.

blood cholesterol level = test: Test B: measurement of the hypocholesterolaemic effect in rodents; format: in vivo, male Wistar rats; details: Rattus norvegicus; oral, cholesterol-fed rats (2.5% cholesterol, 8 days), 24 hours and 4 hours before sacrifice; read-out: 25% effective dose (ED25), quantity of compound which lowers the blood cholesterol level by 25%
Method: Test B: measurement of the hypocholesterolaemic effect in rodents; male Wistar rats weighing 200-220 g are subjected to a diet enriched with 2.5% of cholesterol for 8 days; on the last two days, they are treated orally with the test product, 24 hours and 4 hours before being sacrificed by exsanguination: the blood cholesterol level is evaluated on an aliquot fraction of serum by an automated enzymatic method. The results are expressed in the form of a 25% effective dose (ED25) in mg per kg of animal body weight, which represents the quantity of compound which lowers the blood cholesterol level by 25%.

aortic ACAT = molecular target: T1, aortic ACAT (Oryctolagus cuniculus, UniProt A0A5F9CPP4); test: Test A: measurement of the inhibition of aortic ACAT in vitro in rabbits; format: biochemical, male New Zealand rabbits; details: rabbit aortic microsomes, [^14 C]oleoylcoenzyme A, read-out: 50% inhibitory concentration (IC50), concentration of compound which inhibits the ACAT activity by 50%
T1 construct: the aorta is removed, dissected and homogenised in order to prepare the microsomal fraction by ultracentrifugation; from tissue; host or cells: aorta microsomes of cholesterol-fed male New Zealand rabbits
T1 sequence (A0A5F9CPP4 1-555): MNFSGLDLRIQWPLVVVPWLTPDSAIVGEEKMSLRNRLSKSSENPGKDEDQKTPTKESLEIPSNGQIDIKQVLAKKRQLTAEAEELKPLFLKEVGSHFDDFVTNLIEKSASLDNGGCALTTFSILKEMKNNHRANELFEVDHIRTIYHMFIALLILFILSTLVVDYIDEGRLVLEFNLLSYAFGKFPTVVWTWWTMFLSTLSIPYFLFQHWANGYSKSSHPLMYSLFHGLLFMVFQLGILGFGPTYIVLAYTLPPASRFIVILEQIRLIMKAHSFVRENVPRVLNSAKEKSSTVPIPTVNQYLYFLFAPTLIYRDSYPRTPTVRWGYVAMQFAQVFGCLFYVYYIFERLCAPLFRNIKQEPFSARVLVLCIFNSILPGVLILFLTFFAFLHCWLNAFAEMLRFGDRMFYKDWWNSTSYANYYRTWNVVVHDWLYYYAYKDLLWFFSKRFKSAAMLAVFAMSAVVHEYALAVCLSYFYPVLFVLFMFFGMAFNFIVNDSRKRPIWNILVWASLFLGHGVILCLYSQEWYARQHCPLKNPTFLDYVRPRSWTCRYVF
Method: Test A: measurement of the inhibition of aortic ACAT in vitro in rabbits; male New Zealand rabbits weighing between 2.2 and 2.5 kg, subjected beforehand for 15 days to a diet enriched with 1.25% of cholesterol, are sacrificed by cervical dislocation; the aorta is removed, dissected and homogenised in order to prepare the microsomal fraction by ultracentrifugation; these microsomes are incubated in the presence of [^14 C]oleoylcoenzyme A according to the method described by P. J. GILLIES et al., Exp. and Mol. Pathol., 1986, 44, 329-339; the lipids are extracted from the incubate with a methanol/chloroform mixture and the [^14 C]oleoylcholesterol is separated by TLC: the latter compound represents the measure of the ACAT activity, and the results are expressed in the form of a 50% inhibitory concentration (IC50), representing the concentration of compound which inhibits the ACAT activity by 50%.

CC(C)c1cccc(C(C)C)c1NC(=O)NCC1(n2ccc3cccnc32)CCCC1 [compound no. 1, N^1-[1-(7-azaindol-1-yl)cyclopentylmethyl]-N^2-(2,6-diisopropylphenyl)urea]
ED50 [1]: 0.056 mg/kg | ED25 (blood cholesterol level): 0.202 mg/kg | IC50 (aortic ACAT): 0.16 µM
